# Patent US20080027076A1, “Pyrimidines With Tie2 (Tek) Activity” (ASTRAZENECA AB, priority 2003, published 2008)
# Tests used:
# [1] = molecular target: T1, Tie2 receptor tyrosine kinase (Homo sapiens, UniProt Q02763); assay: In vitro receptor tyrosine kinase inhibition assay (ELISA based, Test (a)); format: biochemical; conditions: recombinant human Tie2 kinase domain lysate, synthetic peptide substrate
# T1 construct: consist of only the intracellular portion C-terminal portion of the respective receptor, within which is found the kinase domain; made in house; host or cells: baculovirus/Sf21 insect cells (cleared lysate used)
# Description: a. In Vitro Receptor Tyrosine Kinase Inhibition Assay
# To test for inhibition of Tie2 receptor tyrosine kinase, compounds are evaluated in a non-cell based protein kinase assay by their ability to inhibit the protein kinase enzyme phosphorylation of a tyrosine containing polypeptide substrate in an ELISA based microtitre plate assay. In this particular case, the assay was to determine the IC50, for three different recombinant human tyrosine kinases Tie2, KDR and Flt.
# To facilitate production of the tyrosine kinases, recombinant receptor genes were produced using standard molecular biology cloning and mutagenesis techniques. These recombinant proteins fragments encoded within these genes consist of only the intracellular portion C-terminal portion of the respective receptor, within which is found the kinase domain. The recombinant genes encoding the kinase domain containing fragments were cloned and expressed in standard baculovirus/Sf21 system (or alternative equivalent). […]
# Constitutive kinase activity of these recombinant proteins was determined by their ability to phosphorylate a synthetic peptide (made up of a random co-polymer of Glutamic Acid, Alanine and Tyrosine in the ratio of 6:3:1). […]
# The immobilised phospho-peptide product of the reaction was detected by immunological methods. […] Following extensive washing with PBS-T, HRP activity in each well of the plate was measured colorimetrically using 22′-Azino-di-[3-ethylbenzthiazoline sulfonate (6)] diammonium salt crystals ABTS (Sigma P4922-prepared as per manufactures instructions) as a substrate incubated for 30-45 minutes to allow colour development, before 100 ul of 1M H2SO4 was added to stop the reaction.
# Quantification of colour development and thus enzyme activity was achieved by the measurement of absorbance at 405 nm on a Molecular Devices ThermoMax microplate reader. Kinase inhibition for a given compound was expressed as an IC50 value. […] The range of phosphorylation was calculated from the positive (vehicle plus ATP) and negative (vehicle minus ATP) control values.
# Tie2 receptor = molecular target: T2, Tie2 receptor (Homo sapiens, UniProt Q02763); assay: Cellular Tie2 autophosphorylation assay (Test (b)); format: cell-based; conditions: Ang1 ligand stimulated cellular Tie2 receptor, e.g. EA.hy926/B3 cells; read-out: IC50 Test (b): Inhibition of autophosphorylation of Tie2 receptor tyrosine kinase
# T2 construct: one can use natural cell lines or primary cells which are known to express the receptor of choice; endogenous in cells; host or cells: EA.hy926/B3 cells
# Text: b. Cellular Tie2 Autophosphorylation Assay
# This assay is based on measuring the ability of compounds to inhibit autophosphorylation of the Tie2 receptor which normally leads to the production of “activated” receptor that in turn initiates the particular signal transduction pathways associated with the receptor function.
# Autophosphorylation can be achieved by a number of means. It is known that expression of recombinant kinase domains in baculoviral systems can lead to the production of phosphorylated and activated receptor. It is also reported that over expression of receptors in recombinant cell lines can itself lead to receptor autophosphorylation in the absence of the ligand (Heldin C-H. 1995 Cell : 80, 213-223; Blume-J. P, Hunter T. 2001 Nature: 411, 355-65). Furthermore, there are numerous literature examples in which chimaeric receptors have been constructed. In these cases the natural, external cell surface domain of the receptor has been replaced with that of a domain which is known to be readily dimerised via the addition of the appropriate ligand (e.g. TrkA-Tie2/NGF ligand (Marron, M. B., et al., 2000 Journal of Biological Chemistry: 275:39741-39746) or C-fms-Tie-1/CSF-1 ligand (Kontos, C. D., et al., 2002 Molecular and Cellular Biology: 22, 1704-1713). Thus when the chimaeric receptor expressed in a host cell line and the respective ligand is added, this induces autophosphorylation of the chimeric receptor's kinase domain. This approach has the advantage of often allowing a known (and often easily obtained) ligand to be used instead of having to identify and isolate the natural ligand for each receptor of interest.
# Naturally if the ligand is available one can use natural cell lines or primary cells which are known to express the receptor of choice and simply stimulate with ligand to achieve ligand induced phosphorylation. […]
# T1 sequence (Q02763 770-1124 limits assumed): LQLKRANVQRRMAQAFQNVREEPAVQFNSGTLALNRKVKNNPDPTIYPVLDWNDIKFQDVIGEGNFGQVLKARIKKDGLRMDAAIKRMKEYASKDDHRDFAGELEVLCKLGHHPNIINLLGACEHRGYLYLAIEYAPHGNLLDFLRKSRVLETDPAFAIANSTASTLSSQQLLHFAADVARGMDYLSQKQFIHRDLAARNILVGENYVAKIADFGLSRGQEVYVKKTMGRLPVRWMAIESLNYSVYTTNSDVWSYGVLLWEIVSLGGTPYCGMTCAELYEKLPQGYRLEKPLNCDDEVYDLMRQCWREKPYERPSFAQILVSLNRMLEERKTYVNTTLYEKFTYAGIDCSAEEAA
# T2 sequence (Q02763 23-1124): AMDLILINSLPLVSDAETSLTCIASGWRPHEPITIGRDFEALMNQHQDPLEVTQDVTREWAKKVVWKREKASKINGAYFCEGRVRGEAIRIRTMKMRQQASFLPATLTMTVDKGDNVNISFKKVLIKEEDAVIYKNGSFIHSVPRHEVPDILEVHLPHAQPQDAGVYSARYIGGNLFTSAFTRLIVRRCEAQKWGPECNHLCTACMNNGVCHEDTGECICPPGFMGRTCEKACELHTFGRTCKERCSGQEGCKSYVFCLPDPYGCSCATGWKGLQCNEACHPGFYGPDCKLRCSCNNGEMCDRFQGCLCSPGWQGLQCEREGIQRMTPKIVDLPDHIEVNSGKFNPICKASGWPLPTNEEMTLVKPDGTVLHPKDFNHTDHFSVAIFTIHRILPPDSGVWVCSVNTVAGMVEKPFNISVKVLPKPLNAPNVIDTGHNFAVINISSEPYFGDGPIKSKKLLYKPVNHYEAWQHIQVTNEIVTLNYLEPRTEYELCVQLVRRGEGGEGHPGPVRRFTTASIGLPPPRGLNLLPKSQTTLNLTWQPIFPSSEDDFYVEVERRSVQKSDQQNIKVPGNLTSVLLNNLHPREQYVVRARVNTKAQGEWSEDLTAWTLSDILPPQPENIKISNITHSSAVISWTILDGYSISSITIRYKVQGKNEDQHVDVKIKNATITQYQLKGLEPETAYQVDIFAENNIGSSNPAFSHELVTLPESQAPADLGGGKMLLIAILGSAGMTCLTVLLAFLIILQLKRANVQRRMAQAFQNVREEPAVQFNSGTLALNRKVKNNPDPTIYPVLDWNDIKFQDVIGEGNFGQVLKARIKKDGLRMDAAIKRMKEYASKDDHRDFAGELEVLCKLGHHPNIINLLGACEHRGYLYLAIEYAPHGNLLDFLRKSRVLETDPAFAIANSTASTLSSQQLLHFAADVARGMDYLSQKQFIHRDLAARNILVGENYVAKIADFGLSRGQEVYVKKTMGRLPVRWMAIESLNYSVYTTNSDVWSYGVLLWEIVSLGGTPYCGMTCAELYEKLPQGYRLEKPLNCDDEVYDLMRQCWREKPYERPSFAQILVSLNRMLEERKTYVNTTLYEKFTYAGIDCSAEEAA
IC50 [1],IC50 (Tie2 receptor),SMILES
879 nM,5560 nM,"CC(C)(C)c1nnc(NC(=O)Nc2ccc(C#Cc3c(N)ncnc3N)cc2)s1 [Example 11, N-(5-tert-butyl-1,3,4-thiadiazol-2-yl)-N′-{4-[(4,6-diaminopyrimidin-5-yl)ethynyl]phenyl}urea]"
2850 nM,351 nM,"Cc1cc(NC(=O)Nc2ccc(C#Cc3c(N)ncnc3N)cc2)sn1 [Example 12, N-{4-[(4,6-diaminopyrimidin-5-yl)ethynyl]phenyl}-N′-(3-methylisothiazol-5-yl)urea]"
2140 nM,3540 nM,"Cc1cc(NC(=O)Nc2cccc(C#Cc3c(N)ncnc3N)c2)on1 [Example 19, N-{3-[(4,6-diaminopyrimidin-5-yl)ethynyl]phenyl}-N′-(3-methylsoxazol-5-yl)urea]"
